Marks after values point to notes of the source that are not given here.
Assay: 4% fat-corrected milk production in sorbitol feeding trials
Type: in vivo, Holstein cows
Text: To convert a particular quantity (weight) of a milk sample to the quantity (weight) of Fat-Corrected Milk, based on a correction to a concentration of four weight percent fat, based on the total weight off the Fat-Corrected Milk, the following equation is employed: 4 wt % FCM=Original Milk Weight×(0.4+(0.15×% TFOM)) where: • the term 4 wt % FCM means the calculated weight of Fat-Corrected Milk, based on a correction to a concentration of four weight percent fat, based on the total weight of the Fat-Corrected Milk, • the term Original Milk Weight means the weight of the original milk sample that is being corrected to a four weight percent fat basis, and • % TFOM is the weight % total fat in the original milk sample, based on the total weight of the original milk sample. Each cow of each of the six different trials (Control Trial #1, Control Trial #2, Pre-Partum Trial #1, Pre-Partum Trial #2, Pre/Post Trial #1, and Pre/Post Trial #2) was milked three times daily and the weight of produced milk by each cow was recorded at each milking. The milk from each cow was sampled once per week (⅓ of the sample volume from each of the three milkings occurring on the weekly milk sampling day) and was analyzed for true protein, total fat, lactose, and total solids, as detailed in the property determination and characterization techniques presented above. Additionally, samples of blood were periodically obtained from each cow during the four trials (Control Trial 2, Pre-Partum Trial #2, Pre/Post Trial #1, and Pre/Post Trial #2) encompassed in Example Two and were analyzed for non-esterified fatty acid (NEFA) content as detailed in the property determination and characterization techniques presented above. No NEFA analysis was conducted on the cows employed in Control Trial #1 or Pre-Partum Trial #1 that are the subject of Example One. Example One includes Control Trial #1 and Pre-Partum Trial #1. Both primiparious cows and multiparious cows were included in Control Trial #1 and Pre-Partum Trial #1. Five primiparious cows and fifteen multiparious cows were included in Control Trial #1; likewise, five primiparious cows and fifteen multiparious cows were included in Pre-Partum Trial #1. All cows included in Control Trial #1 and Pre-Partum Trial #1 were Holsteins. Example Two includes Control Trial #2, Pre-Partum Trial #2, Pre/Post Trial #1, and Pre/Post Trial #2. Only multiparious, Holstein cows were included in Control Trial #2, Pre-Partum Trial #1, Pre/Post Trial #1, and Pre/Post Trial #2. Eighteen multiparious cows were included in both Control Trial #2 and Pre-Partum Trial #2, while sixteen multiparious cows were included in Pre/Post Trial #1 and seventeen multiparious cows were included in Pre/Post Trial #2.

OC[C@@H](O)[C@@H](O)[C@H](O)[C@@H](O)CO [sorbitol]
Milk Production (4.0% fat basis) (Pre-Partum Trial #1 (75/0/0 g/day in wk −3..−1/+1..+4/+5..+8), multiparious cows, weeks +1 through +8): 98.6 lbs/day
Milk Production (4.0% fat basis) (Pre-Partum Trial #1 (75/0/0 g/day in wk −3..−1/+1..+4/+5..+8), primiparious cows, weeks +1 through +8): 79.3 lbs/day
4% fat-corrected milk production increase (Pre-Partum Trial #1 (75 g/day wk −3..−1 only) versus Control Trial #1, multiparious cows, weeks +1 through +8): 12.4%
increase in production of 4% fat-corrected milk (Pre-Partum Trial #1 (75 g/day wk −3..−1 only) versus Control Trial #1, primiparious cows, weeks +1 through +8): 7.6%
Milk Production (4.0% fat basis) (Pre-Partum Trial #2 (75/0/100 g/day in wk −3..−1/+1..+4/+5..+8), multiparious cows, week +1): 71.1^a lbs/day
Milk Production (4.0% fat basis) (Pre-Partum Trial #2 (75/0/100 g/day in wk −3..−1/+1..+4/+5..+8), multiparious cows, week +2): 100 lbs/day
Milk Production (4.0% fat basis) (Pre-Partum Trial #2 (75/0/100 g/day in wk −3..−1/+1..+4/+5..+8), multiparious cows, week +3): 104 lbs/day
Milk Production (4.0% fat basis) (Pre-Partum Trial #2 (75/0/100 g/day in wk −3..−1/+1..+4/+5..+8), multiparious cows, week +4): 101 lbs/day
Milk Production (4.0% fat basis) (Pre-Partum Trial #2 (75/0/100 g/day in wk −3..−1/+1..+4/+5..+8), multiparious cows, week +5): 104^ab lbs/day
Milk Production (4.0% fat basis) (Pre-Partum Trial #2 (75/0/100 g/day in wk −3..−1/+1..+4/+5..+8), multiparious cows, week +6): 102 lbs/day
Milk Production (4.0% fat basis) (Pre-Partum Trial #2 (75/0/100 g/day in wk −3..−1/+1..+4/+5..+8), multiparious cows, week +7): 102 lbs/day
Milk Production (4.0% fat basis) (Pre-Partum Trial #2 (75/0/100 g/day in wk −3..−1/+1..+4/+5..+8), multiparious cows, week +8): 99.5^ab lbs/day
Milk Production (4.0% fat basis) (Pre-Partum Trial #2 (75/0/100 g/day in wk −3..−1/+1..+4/+5..+8), multiparious cows, weeks +1 through +4): 94.4 lbs/day
Milk Production (4.0% fat basis) (Pre-Partum Trial #2 (75/0/100 g/day in wk −3..−1/+1..+4/+5..+8), multiparious cows, weeks +1 through +8): 98 lbs/day
Milk Production (4.0% fat basis) (Pre-Partum Trial #2 (75/0/100 g/day in wk −3..−1/+1..+4/+5..+8), multiparious cows, weeks +5 through +8): 102 lbs/day
Milk Production (4.0% fat basis) (Pre/Post Trial #1 (150/125/100 g/day in wk −3..−1/+1..+4/+5..+8), multiparious cows, week +1): 82.1^ab lbs/day
Milk Production (4.0% fat basis) (Pre/Post Trial #1 (150/125/100 g/day in wk −3..−1/+1..+4/+5..+8), multiparious cows, week +1, two-trial comparison with Control Trial #2 (Table 23)): 82.4 lbs/day
Milk Production (4.0% fat basis) (Pre/Post Trial #1 (150/125/100 g/day in wk −3..−1/+1..+4/+5..+8), multiparious cows, week +2): 100 lbs/day
Milk Production (4.0% fat basis) (Pre/Post Trial #1 (150/125/100 g/day in wk −3..−1/+1..+4/+5..+8), multiparious cows, week +2, two-trial comparison with Control Trial #2 (Table 23)): 99.7 lbs/day
Milk Production (4.0% fat basis) (Pre/Post Trial #1 (150/125/100 g/day in wk −3..−1/+1..+4/+5..+8), multiparious cows, week +3): 107 lbs/day
Milk Production (4.0% fat basis) (Pre/Post Trial #1 (150/125/100 g/day in wk −3..−1/+1..+4/+5..+8), multiparious cows, week +3, two-trial comparison with Control Trial #2 (Table 23)): 107 lbs/day
Milk Production (4.0% fat basis) (Pre/Post Trial #1 (150/125/100 g/day in wk −3..−1/+1..+4/+5..+8), multiparious cows, week +4): 109 lbs/day
Milk Production (4.0% fat basis) (Pre/Post Trial #1 (150/125/100 g/day in wk −3..−1/+1..+4/+5..+8), multiparious cows, week +4, two-trial comparison with Control Trial #2 (Table 23)): 109 lbs/day
Milk Production (4.0% fat basis) (Pre/Post Trial #1 (150/125/100 g/day in wk −3..−1/+1..+4/+5..+8), multiparious cows, week +5): 108^ab lbs/day
Milk Production (4.0% fat basis) (Pre/Post Trial #1 (150/125/100 g/day in wk −3..−1/+1..+4/+5..+8), multiparious cows, week +5, two-trial comparison with Control Trial #2 (Table 23)): 108 lbs/day
Milk Production (4.0% fat basis) (Pre/Post Trial #1 (150/125/100 g/day in wk −3..−1/+1..+4/+5..+8), multiparious cows, week +6): 109 lbs/day
Milk Production (4.0% fat basis) (Pre/Post Trial #1 (150/125/100 g/day in wk −3..−1/+1..+4/+5..+8), multiparious cows, week +6, two-trial comparison with Control Trial #2 (Table 23)): 109 lbs/day
Milk Production (4.0% fat basis) (Pre/Post Trial #1 (150/125/100 g/day in wk −3..−1/+1..+4/+5..+8), multiparious cows, week +7): 103 lbs/day
Milk Production (4.0% fat basis) (Pre/Post Trial #1 (150/125/100 g/day in wk −3..−1/+1..+4/+5..+8), multiparious cows, week +7, two-trial comparison with Control Trial #2 (Table 23)): 103 lbs/day
Milk Production (4.0% fat basis) (Pre/Post Trial #1 (150/125/100 g/day in wk −3..−1/+1..+4/+5..+8), multiparious cows, week +8): 108.7^b lbs/day
Milk Production (4.0% fat basis) (Pre/Post Trial #1 (150/125/100 g/day in wk −3..−1/+1..+4/+5..+8), multiparious cows, week +8, two-trial comparison with Control Trial #2 (Table 23)): 109 lbs/day
Milk Production (4.0% fat basis) (Pre/Post Trial #1 (150/125/100 g/day in wk −3..−1/+1..+4/+5..+8), multiparious cows, weeks +1 through +4): 99.5 lbs/day
Milk Production (4.0% fat basis) (Pre/Post Trial #1 (150/125/100 g/day in wk −3..−1/+1..+4/+5..+8), multiparious cows, weeks +1 through +4, two-trial comparison with Control Trial #2 (Table 23)): 99.7 lbs/day
Milk Production (4.0% fat basis) (Pre/Post Trial #1 (150/125/100 g/day in wk −3..−1/+1..+4/+5..+8), multiparious cows, weeks +1 through +8): 103 lbs/day
Milk Production (4.0% fat basis) (Pre/Post Trial #1 (150/125/100 g/day in wk −3..−1/+1..+4/+5..+8), multiparious cows, weeks +1 through +8, two-trial comparison with Control Trial #2 (Table 23)): 103 lbs/day
Milk Production (4.0% fat basis) (Pre/Post Trial #1 (150/125/100 g/day in wk −3..−1/+1..+4/+5..+8), multiparious cows, weeks +5 through +8): 107 lbs/day
Milk Production (4.0% fat basis) (Pre/Post Trial #1 (150/125/100 g/day in wk −3..−1/+1..+4/+5..+8), multiparious cows, weeks +5 through +8, two-trial comparison with Control Trial #2 (Table 23)): 107 lbs/day
greater production of 4% fat-corrected milk (Pre/Post Trial #1 (150/125/100 g/day) versus Control Trial #2, multiparious cows, week +8): 13.2%
increase in production of 4% fat-corrected milk (Pre/Post Trial #1 (150/125/100 g/day) versus Control Trial #2, multiparious cows, weeks +5 through +8 (Table 23)): 8.1%
greater rate of 4% fat-corrected milk production (Pre/Post Trial #1 (150/125/100 g/day) versus Pre/Post Trial #2 (75/75/100 g/day), multiparious cows, week +8): 15.1%
Milk Production (4.0% fat basis) (Pre/Post Trial #2 (75/75/100 g/day in wk −3..−1/+1..+4/+5..+8), multiparious cows, week +1): 88.6^b lbs/day
Milk Production (4.0% fat basis) (Pre/Post Trial #2 (75/75/100 g/day in wk −3..−1/+1..+4/+5..+8), multiparious cows, week +2): 103 lbs/day
Milk Production (4.0% fat basis) (Pre/Post Trial #2 (75/75/100 g/day in wk −3..−1/+1..+4/+5..+8), multiparious cows, week +3): 106 lbs/day
Milk Production (4.0% fat basis) (Pre/Post Trial #2 (75/75/100 g/day in wk −3..−1/+1..+4/+5..+8), multiparious cows, week +4): 105 lbs/day
Milk Production (4.0% fat basis) (Pre/Post Trial #2 (75/75/100 g/day in wk −3..−1/+1..+4/+5..+8), multiparious cows, week +5): 111^b lbs/day
Milk Production (4.0% fat basis) (Pre/Post Trial #2 (75/75/100 g/day in wk −3..−1/+1..+4/+5..+8), multiparious cows, week +6): 104 lbs/day
Milk Production (4.0% fat basis) (Pre/Post Trial #2 (75/75/100 g/day in wk −3..−1/+1..+4/+5..+8), multiparious cows, week +7): 101 lbs/day
Milk Production (4.0% fat basis) (Pre/Post Trial #2 (75/75/100 g/day in wk −3..−1/+1..+4/+5..+8), multiparious cows, week +8): 94.4^a lbs/day
Milk Production (4.0% fat basis) (Pre/Post Trial #2 (75/75/100 g/day in wk −3..−1/+1..+4/+5..+8), multiparious cows, weeks +1 through +4): 100.6 lbs/day
Milk Production (4.0% fat basis) (Pre/Post Trial #2 (75/75/100 g/day in wk −3..−1/+1..+4/+5..+8), multiparious cows, weeks +1 through +8): 101 lbs/day
Milk Production (4.0% fat basis) (Pre/Post Trial #2 (75/75/100 g/day in wk −3..−1/+1..+4/+5..+8), multiparious cows, weeks +5 through +8): 102 lbs/day
greater production of 4% fat-corrected milk (Pre/Post Trial #2 (75/75/100 g/day) versus Control Trial #2, multiparious cows, week +5): 12.1%
greater rate of 4% fat-corrected milk production (Pre/Post Trial #2 (75/75/100 g/day) versus Pre-Partum Trial #2 (75/0/100 g/day), multiparious cows, week +1): 24.6%

— US9179694B2, “Method and composition for enhancing milk production and milk component concentrations” (PURINA ANIMAL NUTRITION LLC, priority 2003, dated 2015)
